Source: the CheMixHub viscosity set
± gives the uncertainty stated by the source.

Test: xn = mol fraction of the nth substance listed

Compound `CC(O)CCO` (stereo not drawn) + O has a viscosity (298.15 K, 101 kPa, x1 = 0.0996) of 3.694 ± 0.028 mPa·s, a viscosity (298.15 K, 101 kPa, x1 = 0.1982) of 8.539 ± 0.06 mPa·s and a viscosity (298.15 K, 101 kPa, x1 = 0.2991) of 15.27 ± 0.1 mPa·s. It also gave a viscosity (298.15 K, 101 kPa, x1 = 0.4036) of 23.16 ± 0.15 mPa·s, a viscosity (298.15 K, 101 kPa, x1 = 0.4489) of 28.48 ± 0.19 mPa·s and a viscosity (298.15 K, 101 kPa, x1 = 0.6118) of 47.9 ± 0.31 mPa·s. The viscosity (298.15 K, 101 kPa, x1 = 0.6989) was 56.8 ± 0.31 mPa·s, the viscosity (298.15 K, 101 kPa, x1 = 0.7986) was 67.85 ± 0.5 mPa·s and the viscosity (298.15 K, 101 kPa, x1 = 0.8971) was 82.56 ± 0.83 mPa·s. For the same compound, the viscosity (303.15 K, 101 kPa, x1 = 0.0996) was 3.073 ± 0.024 mPa·s, the viscosity (303.15 K, 101 kPa, x1 = 0.1982) was 6.787 ± 0.048 mPa·s and the viscosity (303.15 K, 101 kPa, x1 = 0.2991) was 11.94 ± 0.08 mPa·s. It also gave a viscosity (303.15 K, 101 kPa, x1 = 0.4036) of 18.3 ± 0.12 mPa·s, a viscosity (303.15 K, 101 kPa, x1 = 0.4489) of 23.28 ± 0.15 mPa·s and a viscosity (303.15 K, 101 kPa, x1 = 0.6118) of 35.02 ± 0.23 mPa·s. It also gave a viscosity (303.15 K, 101 kPa, x1 = 0.6989) of 42.27 ± 0.27 mPa·s, a viscosity (303.15 K, 101 kPa, x1 = 0.7986) of 51.92 ± 0.26 mPa·s and a viscosity (303.15 K, 101 kPa, x1 = 0.8971) of 62.2 ± 0.39 mPa·s. It also gave a viscosity (308.15 K, 101 kPa, x1 = 0.0996) of 2.633 ± 0.022 mPa·s, a viscosity (308.15 K, 101 kPa, x1 = 0.1982) of 5.587 ± 0.041 mPa·s and a viscosity (308.15 K, 101 kPa, x1 = 0.2991) of 9.627 ± 0.066 mPa·s. The viscosity (308.15 K, 101 kPa, x1 = 0.4036) was 14.52 ± 0.1 mPa·s, the viscosity (308.15 K, 101 kPa, x1 = 0.4489) was 17.57 ± 0.12 mPa·s and the viscosity (308.15 K, 101 kPa, x1 = 0.6118) was 27.68 ± 0.18 mPa·s. It also gave a viscosity (308.15 K, 101 kPa, x1 = 0.6989) of 33.27 ± 0.22 mPa·s, a viscosity (308.15 K, 101 kPa, x1 = 0.7986) of 38.78 ± 0.25 mPa·s and a viscosity (308.15 K, 101 kPa, x1 = 0.8971) of 46.95 ± 0.3 mPa·s. It also gave a viscosity (313.15 K, 101 kPa, x1 = 0.0996) of 2.297 ± 0.019 mPa·s, a viscosity (313.15 K, 101 kPa, x1 = 0.1982) of 4.737 ± 0.035 mPa·s and a viscosity (313.15 K, 101 kPa, x1 = 0.2991) of 8.017 ± 0.056 mPa·s. The viscosity (313.15 K, 101 kPa, x1 = 0.4036) was 11.63 ± 0.08 mPa·s, the viscosity (313.15 K, 101 kPa, x1 = 0.4489) was 13.92 ± 0.09 mPa·s and the viscosity (313.15 K, 101 kPa, x1 = 0.6118) was 21.38 ± 0.14 mPa·s. For the same compound, the viscosity (313.15 K, 101 kPa, x1 = 0.6989) was 25.42 ± 0.17 mPa·s, the viscosity (313.15 K, 101 kPa, x1 = 0.7986) was 29.8 ± 0.19 mPa·s and the viscosity (313.15 K, 101 kPa, x1 = 0.8971) was 35.92 ± 0.23 mPa·s. It also gave a viscosity (318.15 K, 101 kPa, x1 = 0.0996) of 2.019 ± 0.018 mPa·s, a viscosity (318.15 K, 101 kPa, x1 = 0.1982) of 4.034 ± 0.03 mPa·s and a viscosity (318.15 K, 101 kPa, x1 = 0.2991) of 6.671 ± 0.047 mPa·s. The viscosity (318.15 K, 101 kPa, x1 = 0.4036) was 9.592 ± 0.066 mPa·s, the viscosity (318.15 K, 101 kPa, x1 = 0.4489) was 11.4 ± 0.08 mPa·s and the viscosity (318.15 K, 101 kPa, x1 = 0.6118) was 17.22 ± 0.11 mPa·s. The viscosity (318.15 K, 101 kPa, x1 = 0.6989) was 20.24 ± 0.13 mPa·s, the viscosity (318.15 K, 101 kPa, x1 = 0.7986) was 23.4 ± 0.15 mPa·s and the viscosity (318.15 K, 101 kPa, x1 = 0.8971) was 27.87 ± 0.18 mPa·s. The viscosity (318.15 K, 101.3 kPa, x2 = 0.045) was 28.95 ± 0.14 mPa·s and the viscosity (318.15 K, 101.3 kPa, x2 = 0.2499) was 20.85 ± 0.11 mPa·s.

In the case of `c1ccncc1` + CS(C)=O, the viscosity (298.15 K, 101.3 kPa, x1 = 0.041) is reported as 1.859 ± 0.049 mPa·s, the viscosity (298.15 K, 101.3 kPa, x1 = 0.089) is reported as 1.803 ± 0.047 mPa·s and the viscosity (298.15 K, 101.3 kPa, x1 = 0.18) is reported as 1.6 ± 0.042 mPa·s. It also gave a viscosity (298.15 K, 101.3 kPa, x1 = 0.274) of 1.488 ± 0.039 mPa·s, a viscosity (298.15 K, 101.3 kPa, x1 = 0.369) of 1.38 ± 0.036 mPa·s and a viscosity (298.15 K, 101.3 kPa, x1 = 0.468) of 1.28 ± 0.034 mPa·s. The viscosity (298.15 K, 101.3 kPa, x1 = 0.569) was 1.185 ± 0.031 mPa·s, the viscosity (298.15 K, 101.3 kPa, x1 = 0.673) was 1.097 ± 0.029 mPa·s and the viscosity (298.15 K, 101.3 kPa, x1 = 0.779) was 1.029 ± 0.027 mPa·s. It also gave a viscosity (298.15 K, 101.3 kPa, x1 = 0.888) of 0.969 ± 0.026 mPa·s, a viscosity (298.15 K, 101.3 kPa, x1 = 0.943) of 0.975 ± 0.026 mPa·s and a viscosity (308.15 K, 101.3 kPa, x1 = 0.041) of 1.535 ± 0.041 mPa·s. It also gave a viscosity (308.15 K, 101.3 kPa, x1 = 0.089) of 1.47 ± 0.039 mPa·s, a viscosity (308.15 K, 101.3 kPa, x1 = 0.18) of 1.318 ± 0.035 mPa·s and a viscosity (308.15 K, 101.3 kPa, x1 = 0.274) of 1.2 ± 0.032 mPa·s. For the same compound, the viscosity (308.15 K, 101.3 kPa, x1 = 0.369) was 1.13 ± 0.03 mPa·s, the viscosity (308.15 K, 101.3 kPa, x1 = 0.468) was 1.044 ± 0.028 mPa·s and the viscosity (308.15 K, 101.3 kPa, x1 = 0.569) was 0.984 ± 0.026 mPa·s. For the same compound, the viscosity (308.15 K, 101.3 kPa, x1 = 0.673) was 0.913 ± 0.024 mPa·s, the viscosity (308.15 K, 101.3 kPa, x1 = 0.779) was 0.849 ± 0.022 mPa·s and the viscosity (308.15 K, 101.3 kPa, x1 = 0.888) was 0.791 ± 0.021 mPa·s. The viscosity (308.15 K, 101.3 kPa, x1 = 0.943) was 0.76 ± 0.02 mPa·s, the viscosity (318.15 K, 101.3 kPa, x1 = 0.041) was 1.246 ± 0.033 mPa·s and the viscosity (318.15 K, 101.3 kPa, x1 = 0.089) was 1.191 ± 0.031 mPa·s. The viscosity (318.15 K, 101.3 kPa, x1 = 0.18) was 1.098 ± 0.029 mPa·s, the viscosity (318.15 K, 101.3 kPa, x1 = 0.274) was 1.042 ± 0.028 mPa·s and the viscosity (318.15 K, 101.3 kPa, x1 = 0.369) was 0.972 ± 0.026 mPa·s. For the same compound, the viscosity (318.15 K, 101.3 kPa, x1 = 0.468) was 0.922 ± 0.024 mPa·s, the viscosity (318.15 K, 101.3 kPa, x1 = 0.569) was 0.858 ± 0.023 mPa·s and the viscosity (318.15 K, 101.3 kPa, x1 = 0.673) was 0.795 ± 0.021 mPa·s. It also gave a viscosity (318.15 K, 101.3 kPa, x1 = 0.779) of 0.753 ± 0.02 mPa·s, a viscosity (318.15 K, 101.3 kPa, x1 = 0.888) of 0.723 ± 0.019 mPa·s and a viscosity (318.15 K, 101.3 kPa, x1 = 0.943) of 0.715 ± 0.019 mPa·s.

For `CCCCCCCCCC(=O)O` + CCCCCCCCCCCCCCC, the viscosity (298.2 K, 100 kPa, x2 = 0.8127) was 2.95 ± 0.18 mPa·s, the viscosity (308.2 K, 100 kPa, x2 = 0.8127) was 2.29 ± 0.14 mPa·s and the viscosity (318.2 K, 100 kPa, x2 = 0.8127) was 1.83 ± 0.11 mPa·s.

For `c1ccncc1` + CCCO, the viscosity (303.15 K, 101 kPa, x1 = 0.2999) was 1.165 ± 0.0092 mPa·s, the viscosity (303.15 K, 101 kPa, x1 = 0.5) was 0.9865 ± 0.0088 mPa·s and the viscosity (308.15 K, 101 kPa, x1 = 0.2999) was 1.065 ± 0.009 mPa·s. For the same compound, the viscosity (313.15 K, 101 kPa, x1 = 0.1001) was 1.205 ± 0.0093 mPa·s and the viscosity (323.15 K, 101 kPa, x1 = 0.3998) was 0.7875 ± 0.0084 mPa·s.

With `c1c[nH]cn1` + O the viscosity (298.15 K, 100 kPa, x1 = 0.0286) was 1.058 ± 0.043 mPa·s, the viscosity (298.15 K, 100 kPa, x1 = 0.0621) was 1.242 ± 0.05 mPa·s and the viscosity (298.15 K, 100 kPa, x1 = 0.102) was 1.47 ± 0.06 mPa·s. The viscosity (298.15 K, 100 kPa, x1 = 0.15) was 1.737 ± 0.071 mPa·s, the viscosity (298.15 K, 100 kPa, x1 = 0.209) was 2.14 ± 0.09 mPa·s and the viscosity (303.15 K, 100 kPa, x1 = 0.0286) was 0.944 ± 0.038 mPa·s. The viscosity (303.15 K, 100 kPa, x1 = 0.0621) was 1.103 ± 0.045 mPa·s, the viscosity (303.15 K, 100 kPa, x1 = 0.102) was 1.301 ± 0.054 mPa·s and the viscosity (303.15 K, 100 kPa, x1 = 0.15) was 1.541 ± 0.064 mPa·s. The viscosity (303.15 K, 100 kPa, x1 = 0.209) was 1.881 ± 0.078 mPa·s, the viscosity (313.15 K, 100 kPa, x1 = 0.0286) was 0.771 ± 0.031 mPa·s and the viscosity (313.15 K, 100 kPa, x1 = 0.0621) was 0.892 ± 0.036 mPa·s. The viscosity (313.15 K, 100 kPa, x1 = 0.102) was 1.043 ± 0.043 mPa·s, the viscosity (313.15 K, 100 kPa, x1 = 0.15) was 1.261 ± 0.052 mPa·s and the viscosity (313.15 K, 100 kPa, x1 = 0.209) was 1.543 ± 0.064 mPa·s. It also gave a viscosity (323.15 K, 100 kPa, x1 = 0.0286) of 0.647 ± 0.026 mPa·s, a viscosity (323.15 K, 100 kPa, x1 = 0.0621) of 0.742 ± 0.03 mPa·s and a viscosity (323.15 K, 100 kPa, x1 = 0.102) of 0.862 ± 0.036 mPa·s. It also gave a viscosity (323.15 K, 100 kPa, x1 = 0.15) of 1.034 ± 0.043 mPa·s and a viscosity (323.15 K, 100 kPa, x1 = 0.209) of 1.254 ± 0.052 mPa·s.
